US6391921B1 (priority 2000, dated 2002)

Experiments:
[1] = tested on: HaCaT cells; experiment: PGE2 release from UVB-irradiated HaCaT cells; type: cell-based, human; conditions: 20 mJ/cm^2 UVB, 24 hours post irradiation; FIG. 5
From the text: A bank of 8-FSX24T12/HO/UVB lamps (National Biological Corporation, Twinsburg, Ohio) that emit light predominantly in the UVB range (280-320 nm) was used to irradiate the cell cultures. The performance of the UVB lamps was always confirmed before irradiation using a UVB meter (model-500C obtained from National Biological Corporation, Twinsburg, Ohio). The dose of UVB light used to irradiate cell cultures was 20 mJ/cm^2. Confluent HaCaT cells cultured in 24-well culture dishes were washed three times with serum-free DMEM containing 1% BSA and incubated with indicated concentrations of compound D-58 for 1 hour at 37° C. […] Compound D-58 was readministered after irradiation and the cells were incubated for another 24 hours at 37° C. The cell supernatants were collected and their PGE2 concentration was measured by ELISA. The protein contents of the cell pellets were determined using the Pierce BCA protein assay method.
One of the major arachidonic acid metabolites in UVB-irradiated epidermal cells is prostaglandin E2 (PGE2), which induces edema and erythema in skin (refs 34 and 35). PGE2 release can be detected as early as 6 hours and peaks between 24-48 hours following UVB exposure. […]
To summarize, confluent monolayers of the human epidermal cell line HaCaT were either irradiated with UVB (20 mJ/cm^2) or sham irradiated. […] The drug was readministered after UVB exposure. […]

[2] = tested on: RBL-2H3 mast cells; experiment: IgE receptor/FcεRI-mediated mast cell LTC4 release; type: cell-based, rat; conditions: 1 hour prior to DNP-BSA challenge; FIG. 3B
Method: Monolayers of RBL-2H3 rat mast cells were sensitized with monoclonal anti-DNP IgE antibody (0.24 mg/ml) for 1 hour at 37° C. in a 48-well tissue culture plate. Unbound IgE was removed by washing the cells with phosphate buffered saline. After washing, PIPES-buffered saline containing 1 mM calcium chloride was added to the monolayers of the RBL-2H3 cells. The cells were challenged with 20 ng/ml DNP-BSA for 30 minutes at 37° C. The plate was centrifuged at 200 g for 10 minutes at 4° C. and supernatants were saved. […]
To study the effects of compound D-58, RBL-2H3 cells were incubated with compound D-58 at the indicated concentrations or vehicle for 1 hour prior to antigen challenge. Mast cell degranulation (β-hexosaminidase release, % of total) was assessed by measuring the β-hexosaminidase levels in cell free supernatants and Triton X-100 solubilized pellets using the formula: β-hexosaminidase release, % of total=100×(β-hexosaminidase level in supernatant/β-hexosaminidase level in supernatant+solubilized pellet). […]
In order to examine the effects of compound D-58 on IgE receptor/FcεRI-mediated mast cell activation and mediator release, RBL-2H3 mast cells were exposed to increasing concentrations of this ethanone or vehicle prior to challenge with antigen (DNP-BSA). […] Mast cell β-hexosaminidase release (FIG. 3A) and LTC4 release (FIG. 3B) were measured. […]

Compound: COc1ccc(CC(=O)c2c(O)cc(O)cc2O)cc1 [Compound D-58]
- PGE2 release from UVB irradiated cells [1]: inhibited the PGE2 release
- IgE/antigen induced LTC4 release [2]: inhibited
